According to the supplement of paper PMC6045584:
± gives the standard deviation of the averaged measurements.

Assays:
FLAVOPIRIDOL = compound: CN1CC[C@H](c2c(O)cc(O)c3c(=O)cc(-c4ccccc4Cl)oc23)[C@H](O)C1 [FLAVOPIRIDOL]; test: surviving fraction relative to DMSO-only wells; higher = less growth inhibition; conditions: exposure time: 5 days
Procedure, shortened: (§1)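 Surviving fraction was calculated by normalising CellTiter-Glo luminescence to the median of DMSO-only wells. Tumour cell lines in log phase were seeded in 384-well plates at 250–500 cells per well, and 24 hours later were exposed continuously for five days to inhibitors at 0.5, 1, 5, 10, 50, 100, 500 and 1000 nM.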

2-METHOXYESTRADIOL = compound: COc1cc2c(cc1O)CC[C@@H]1[C@@H]2CC[C@]2(C)[C@@H](O)CC[C@@H]12 [2-METHOXYESTRADIOL]; test: as above; conditions: exposure time: 5 days
Procedure, shortened: as §1

Test System	surviving fraction (FLAVOPIRIDOL; 0.5 nM)	surviving fraction (FLAVOPIRIDOL; 1 nM)	surviving fraction (FLAVOPIRIDOL; 5 nM)	surviving fraction (FLAVOPIRIDOL; 10 nM)	surviving fraction (FLAVOPIRIDOL; 50 nM)	surviving fraction (FLAVOPIRIDOL; 100 nM)	surviving fraction (FLAVOPIRIDOL; 500 nM)	surviving fraction (FLAVOPIRIDOL; 1000 nM)	surviving fraction (2-METHOXYESTRADIOL; 0.5 nM)	surviving fraction (2-METHOXYESTRADIOL; 1 nM)	surviving fraction (2-METHOXYESTRADIOL; 5 nM)	surviving fraction (2-METHOXYESTRADIOL; 10 nM)	surviving fraction (2-METHOXYESTRADIOL; 50 nM)	surviving fraction (2-METHOXYESTRADIOL; 100 nM)	surviving fraction (2-METHOXYESTRADIOL; 500 nM)	surviving fraction (2-METHOXYESTRADIOL; 1000 nM)
CCK81 LARGE INTESTINE	0.883 ± 0.13	0.817 ± 0.082	0.785 ± 0.15	0.813 ± 0.1	0.416 ± 0.062	0.0273 ± 0.011	0.0177 ± 0.0015	0.0203 ± 0.00058	0.764 ± 0.17	0.801 ± 0.13	0.773 ± 0.027	0.752 ± 0.059	0.776 ± 0.076	0.779 ± 0.03	0.574 ± 0.076	0.249 ± 0.02
G292 BONE	0.97 ± 0.068	0.987 ± 0.057	1.033 ± 0.0078	0.995 ± 0.024	0.628 ± 0.039	0.18 ± 0.0055	0.0742 ± 0.0043	0.0712 ± 0.0055	0.988 ± 0.035	0.956 ± 0.026	1.04 ± 0.035	0.994 ± 0.049	0.982 ± 0.061	0.919 ± 0.029	0.39 ± 0.013	0.234 ± 0.017
HCC38 BREAST	1.18 ± 0.1	1.22 ± 0.13	1.33 ± 0.097	1.34 ± 0.21	1.02 ± 0.15	0.571 ± 0.18	0.046 ± 0.0053	0.0423 ± 0.0093	1.28 ± 0.069	1.28 ± 0.15	1.12 ± 0.26	1.21 ± 0.18	1.35 ± 0.15	1.02 ± 0.36	0.76 ± 0.074	0.349 ± 0.028
HCC70 BREAST	1.03 ± 0.06	1.02 ± 0.11	1.06 ± 0.1	1.01 ± 0.11	0.784 ± 0.1	0.129 ± 0.078	0.0557 ± 0.032	0.0423 ± 0.019	0.978 ± 0.05	1.06 ± 0.064	1.03 ± 0.062	1.07 ± 0.016	1.03 ± 0.14	1.01 ± 0.1	0.629 ± 0.044	0.212 ± 0.043
HMLE3 BREAST	1.07 ± 0.088	0.951 ± 0.097	1.16 ± 0.087	1.11 ± 0.097	0.771 ± 0.074	0.131 ± 0.029	0.026 ± 0.0036	0.0233 ± 0.0015	0.913 ± 0.033	0.964 ± 0.037	0.991 ± 0.059	1.05 ± 0.031	0.987 ± 0.068	0.887 ± 0.059	0.937 ± 0.064	0.602 ± 0.035
HMT3552 BREAST	1.06 ± 0.041	1.05 ± 0.045	0.986 ± 0.071	0.963 ± 0.027	0.232 ± 0.019	0.068 ± 0.0027	0.066 ± 0.003	0.061 ± 0.0027	1.06 ± 0.034	1.04 ± 0.09	1.08 ± 0.013	0.993 ± 0.015	1.11 ± 0.029	1.17 ± 0.066	0.343 ± 0.025	0.126 ± 0.008
HS57T BREAST	1.06 ± 0.053	1.06 ± 0.015	1.12 ± 0.037	1.16 ± 0.035	0.667 ± 0.018	0.0337 ± 0.0025	0.036 ± 0.001	0.0327 ± 0.0021	0.919 ± 0.034	0.879 ± 0.078	0.95 ± 0.074	0.965 ± 0.041	0.936 ± 0.044	0.901 ± 0.054	0.326 ± 0.017	0.0817 ± 0.0051
HS578T BREAST	1.13 ± 0.054	1.21 ± 0.13	1.19 ± 0.29	1.21 ± 0.2	0.667 ± 0.08	0.0923 ± 0.01	0.068 ± 0.0036	0.0673 ± 0.0025	0.859 ± 0.075	0.947 ± 0.024	0.946 ± 0.13	0.917 ± 0.046	1.05 ± 0.23	1.16 ± 0.096	0.499 ± 0.08	0.188 ± 0.0064
